Converted amounts (≈) assume the structure as drawn.
Assays:
[1] = In vitro cytotoxicity, Sulforhodamine B (SRB) assay; type: cell-based, human; conditions: human, range 80 to 0.55 μg/mL
From the text: (§1) Toxicity scrutiny of synthesized compounds at the early phase of research paves the way to clinical trials and reduces the failure of potential therapeutics at later stages of clinical trials. To scrutinize the safety and selectivity of antimicrobial activity of the synthesized compounds, the compounds 6c and 6f were appraised for their toxicity against HeLa (a human cervical cancer cell line) and PC-3 (human prostate cancer cell line) by the Sulforhodamine B (SRB) assay using adriamycin as a standard drug.
(§2) The images were captured using an Eclipse Ti-S Inverted Research Microscope (Nikon, Tokyo, Japan). Image processing software used was NIS-Elements.

[2] = system: HeLa (human cervical cancer cell line); test: as above; type: cell-based; conditions: up to 80 µg/mL
From the text: as §1, §2

A. flavus = test: In vitro antifungal activity (MIC100, CLSI/NCCLS); type: cell-based; conditions: Aspergillus flavus; A. fla.; average of three readings; read-out: MIC 100
Procedure: (§3) The newly synthesized derivatives 4(a–f) and 6(a–f) were screened for their in vitro antifungal activity against different yeast and filamentous fungal pathogens. Minimum inhibitory concentration (MIC100) values for in vitro antifungal activity were determined by the methods recommended by National Committee for Clinical Laboratory Standards (NCCLS). Miconazole was used as standard drug. Dimethyl sulfoxide (DMSO) was used as solvent control.
(§4) In vitro antifungal activity was determined as per CLSI (formerly, NCCLS) guidelines. […] The medium yeast nitrogen base was dissolved in phosphate buffer pH 7 and it was autoclaved at 110 °C for 10 min. With each set a growth control without the antifungal agent and solvent control DMSO were included. The fungal strains were freshly sub cultured on to Sabouraud dextrose agar (SDA) and incubated at 25 °C for 72 h. The fungal cells were suspended in sterile distilled water and diluted to get 10^5 cells/mL. Further, ten microlitres of the standardized suspension was inoculated onto the control plates and the media incorporated with the antifungal agents. The inoculated plates were incubated at 25 °C for 48 h. The readings were taken at the end of 48 h and 72 h. The MIC was the lowest concentration of drug preventing growth of macroscopically visible colonies on drug containing plates when there was visible growth on the drug free control plates.

Candida albicans = test: In vitro antifungal activity (MIC100, CLSI/NCCLS); type: cell-based; conditions: C. alb., average of three readings, read-out: MIC 100
Procedure: as §3, §4

Cryptococcus neoformans = test: In vitro antifungal activity (MIC100, CLSI/NCCLS); type: cell-based; conditions: C. neo., average of three readings, read-out: MIC 100
Procedure: as §3, §4

Candida glabrata = test: In vitro antifungal activity (MIC100, CLSI/NCCLS); type: cell-based; conditions: Nakaseomyces glabratus; C. glab.; average of three readings; read-out: MIC 100
Procedure: as §3, §4

Fusarium oxysporum = test: In vitro antifungal activity (MIC100, CLSI/NCCLS); type: cell-based; conditions: F. oxy., average of three readings, read-out: MIC 100
Procedure: as §3, §4

Aspergillus fumigates = test: In vitro antifungal activity (MIC100, CLSI/NCCLS); type: cell-based; conditions: A. fum., average of three readings, read-out: MIC 100
Procedure: as §3, §4

Aspergillus niger = test: In vitro antifungal activity (MIC100, CLSI/NCCLS); type: cell-based; conditions: A. nig., average of three readings, read-out: MIC 100
Procedure: as §3, §4

DdlB from E.coli = DdlB from E.coli (Escherichia coli, UniProt P07862); test: D-Alanine-D-alanine ligase (DdlB) enzyme inhibition, malachite green method; type: biochemical; conditions: 37 °C, 30 min incubation, 5% DMSO
Procedure: The key enzyme involved in the peptidoglycan biosynthesis is D-alanine-D-alanine ligase (Ddl), making it an important target for drug discovery. Inhibition of DdlB as an essential enzyme in either Gram-positive or Gram-negative organisms leads to the loss of cell shape and integrity followed by bacterial death. The synthesized derivatives 4(a–f) and 6(a–f) were tested for their inhibitory activity on DdlB from E.coli. The results are presented as IC50 values.
The D-Ala-adding activity of DdlB ligase was monitored by the detection of orthophosphate generated during the reaction based on the colorimetric malachite green method described by Walsh et al.. […] All the compounds were soluble in the assay mixture containing 5% DMSO. After 30 min of incubation, 100 µL Biomol reagent was added. After 5 min, absorbance was read at 650 nm. Residual activity was calculated with respect to a similar assay without inhibitor. To exclude possible non-specific (promiscuous) inhibitors, representative compounds 4(a–f) and 6(a–f) were also tested in the presence of Tween (0.003%), Triton X-114 (0.005%), and SDS (420 µM), as described by McGovern et al.. No significant differences were found when compared to measurements without detergents.

[3] = system: Staphylococcus aureus (NCIM-2901); test: In vitro antibacterial activity (MIC100, two fold serial dilution, NCCLS); type: cell-based; conditions: Staphylococcus aureus, NCIM2901, 24 h, read-out: MIC100, S. aureus NCIM-2901, average of three readings
Procedure: (§5) All the synthesized compounds 4(a–f) and 6(a–f) were screened for their in vitro antibacterial activity against Staphylococcus aureus (NCIM-2901), Escherichia coli 1411 (standard laboratory strains) and Escherichia coli SM1411 (an acrAB deficient derivative of 1411). Minimum inhibitory concentration (MIC100) values were determined using methods recommended by National Committee for Clinical Laboratory Standards (NCCLS). Dimethyl sulfoxide (DMSO) was used as solvent control.
(§6) All the synthesized compounds 4(a–f) and 6(a–f) were screened for their in vitro antibacterial activity against Staphylococcus aureus (NCIM-2901) and Escherichia coli 1411 (standard laboratory strains) and Escherichia coli SM1411 (an acrAB deficient derivative of 1411). Minimum inhibitory concentration (MIC100) values were determined using the method recommended by National Committee for Clinical Laboratory Standards (NCCLS). In vitro antibacterial activities of the synthesized compounds 4(a–f) and 6(a–f) were tested in Nutrient Broth (NB) for Bacteria by the two fold serial dilution method. Seeded broth (broth containing microbial spores) was prepared in NB from 24 h old bacterial cultures on nutrient agar (Hi-media) at 37 ± 1 °C. The bacterial suspension was adjusted with sterile saline to a concentration of […]. The synthesized compounds and standard drug D-cycloserine were prepared by two fold serial dilutions to obtain the required concentrations. The tubes were incubated in BOD incubators at 37 ± 1 °C for bacteria. The MICs were recorded by visual observations after 24 h (for bacteria) of incubation.

Escherichia coli 1411 = test: as above; type: cell-based; conditions: Escherichia coli, 1411, 24 h, read-out: MIC100
Procedure: as §5, §6

[4] = system: Escherichia coli SM1411 (an acrAB deficient derivative of 1411); test: as above; type: cell-based; conditions: 24 h, read-out: MIC100
Procedure: as §5, §6

Swiss albino mice = test: In vivo acute oral toxicity study and gross behavioral study (OECD guideline No. 425)
Procedure: The in vivo acute oral toxicity and gross behavioral study results of the newly synthesized compounds 6c and 6f are as listed in Table 12 [26].
Each group, consisting of six Swiss albino mice (18–22 gm weight, overnight fasted), were kept in colony cage at 25 ± 2 °C with 55% relative humidity and 12 h of light and dark cycle. A specified dose of 100, 250, 500, 750, 1000, 1500 and 2000 mg/kg body weight of mice was administered orally as a single dose. The acute toxic symptoms and the behavioral changes produced by the test compounds were observed continuously for 4 h periods at 8th, 12th and 24th h on set of toxic symptoms and the gross behavioral changes were also recorded. These animals were maintained for further 10 days with observation made daily. The in vivo acute oral toxicity study was carried out at animal house at the Y.B. Chavan College of Pharmacy, Aurangabad IAEC approval number CPCSEA/IAEC/P’col-52/2015-16/115 [26].

[5] = system: ergosterol biosynthesis in Candida albicans (NCIM-3471); test: Ergosterol extraction and quantitation assay (UV sterol profile); type: cell-based; conditions: C. albicans NCIM3471; 6f 24 µg/mL, miconazole 25 µg/mL; 281.5 nm
Procedure: Changes in this absorption pattern are therefore indicative of interference in the synthetic pathway of ergosterol.
A single Candida albicans (NCIM-3471) colony from an overnight Sabouraud dextrose agar plate culture was used to inoculate 50 mL of Sabouraud dextrose broth for control and for various concentrations of the molecules. The cultures were incubated for 16 hours and harvested by centrifugation at 2700 rpm (856× g) for five min. The net weight of the cell pellet was determined. Three mL of 25% alcoholic potassium hydroxide solution was added to each pellet and vortex mixed for one min. Cell suspensions were transferred to sterile borosilicate glass screw-cap tubes and were incubated in an 85 °C water bath for one hour. Following incubation, the tubes were allowed to cool. Sterols were then extracted by addition of a mixture of 1 mL of sterile distilled water and 3 mL of n-heptane followed by vigorous vortex mixing for 3 min. The heptane layer was transferred to a clean borosilicate glass screw-cap tube and stored at −20 °C. Prior to analysis, 0.6 mL aliquot of sterol extract was diluted five fold in 100% ethanol and scanned spectrophotometrically between 240 nm and 300 nm with a spectrophotometer (UV-Visible Spectrophotometer 2100, Thermo Fischer Scientific, Waltham, MA, USA). The presence of ergosterol and the late sterol intermediate 24(28)-dehydroergosterol (DHE) in the extracted sample results in a characteristic four-peaked curve. The absence of detectable ergosterol in extracts was indicated by a flat line.
Sterols were extracted from cells and spectral profiles between 240 and 300 nm were determined.

Compound	GI50 ([1]; HeLa cells, SRB assay) [µg/mL]	GI50 ([1]; PC-3 cells) [µg/mL]	cell inhibition [2]	MIC (A. flavus) [µg/mL]	MIC (Candida albicans) [µg/mL]	MIC (Cryptococcus neoformans) [µg/mL]	MIC (Candida glabrata) [µg/mL]	MIC (Fusarium oxysporum) [µg/mL]	MIC (Aspergillus fumigates) [µg/mL]	MIC (Aspergillus niger) [µg/mL]	IC50 (DdlB from E.coli) [µM]	MIC [3] [µg/mL]	MIC (Escherichia coli 1411) [µg/mL]	MIC [4] [µg/mL]	No. of Deaths (Swiss albino mice; Swiss albino mice, single oral dose 100 to 2000 mg/kg)	lethal dose (Swiss albino mice; mice, oral, single dose, no mortality up to 2000 mg/kg)	ergosterol peak in UV sterol profile at the MIC value [5]	melting point [°C]
COc1cccc2c1C(=O)c1c(O)c3c(c(O)c1C2=O)C[C@@](O)(C(=O)CO)C[C@@H]3O[C@H]1C[C@H](N)[C@H](O)[C@H](C)O1 [Adriamycin, reference compound]	0.5 (≈ 0.92 µM)	0.5 (≈ 0.92 µM)																
CC1=C(C(=O)NN)C(c2coc3ccc(F)cc3c2=O)NC(=O)N1 (centres unmarked) [Compound 6c, 4-(6-Fluoro-4-oxo-4H-chromen-3-yl)-6-methyl-2-oxo-1,2,3,4-tetrahydropyrimidine-5-carbohydrazide]	> 80	> 80	cell inhibition did not occur	42 (≈ 126 µM)	52 (≈ 156 µM)	40 (≈ 120 µM)	52 (≈ 156 µM)	58 (≈ 175 µM)	60 (≈ 181 µM)	40 (≈ 120 µM)	106	32 (≈ 96.3 µM)	14 (≈ 42.1 µM)	14 (≈ 42.1 µM)	N	above 2000 mg/kg body weight		
Clc1ccc(COC(Cn2ccnc2)c2ccc(Cl)cc2Cl)c(Cl)c1 (centres unmarked) [Miconazole, reference compound]				12 (≈ 28.8 µM)	25 (≈ 60.1 µM)	12 (≈ 28.8 µM)	25 (≈ 60.1 µM)	25 (≈ 60.1 µM)	35 (≈ 84.1 µM)	12 (≈ 28.8 µM)							inhibition of ergosterol	
CC1=C(C(=O)NN)C(c2coc3ccccc3c2=O)NC(=S)N1 (centres unmarked) [Compound 6b, 6-Methyl-4-(4-oxo-4H-chromen-3-yl)-2-thioxo-1,2,3,4-tetrahydropyrimidine-5-carbohydrazide]				60 (≈ 182 µM)	64 (≈ 194 µM)	50 (≈ 151 µM)	60 (≈ 182 µM)	54 (≈ 163 µM)	58 (≈ 176 µM)	48 (≈ 145 µM)	124	76 (≈ 230 µM)	34 (≈ 103 µM)	34 (≈ 103 µM)				198 to 200
CCOC(=O)C1=C(C)NC(=O)NC1c1coc2ccccc2c1=O (centres unmarked) [Compound 4a, Ethyl 6-methyl-2-oxo-4-(4-oxo-4H-chromen-3-yl)-1,2,3,4-tetrahydropyrimidine-5-carboxylate]				66 (≈ 201 µM)	> 100	60 (≈ 183 µM)	> 100	82 (≈ 250 µM)	65 (≈ 198 µM)	57 (≈ 174 µM)	158	64 (≈ 195 µM)	46 (≈ 140 µM)	40 (≈ 122 µM)				270 to 272

From article PMC6017654, “Ionic Liquid-Promoted Synthesis of Novel Chromone-Pyrimidine Coupled Derivatives, Antimicrobial Analysis, Enzyme Assay, Docking Study and Toxicity Study” (Molecules : A Journal of Synthetic Chemistry and Natural …, 2018)
